Laboratory results reported in patent US20120171274A1, “TRANSDERMAL PATCH” (priority 2006, published 2012).

Columns and labels:
Assay type in all cases: physicochemical
[1] = Solvency of the active substance in monomer (visual inspection); design: key: Excellent: The active substance was not found to have been precipitated in the solution of active substance both immediately after the preparation and after the preservation for 7 days.; Good: The active substance was found to have been precipitated in the solution of active substance immediately after the preparation, but the active substance was not found to have been precipitated in the solution of active substance after the preservation for 7 days.; Poor: The active substance was found to have been precipitated in the solution of active substance both immediately after the preparation and after the preservation for 7 days; conditions: 3 parts active substance per 100 parts monomer, 25° C., 7 days
[2] = Residual rate of the active substance in monomer solution (HPLC); conditions: for Residual Rate of active substance, Immediately after Preparation: 3 parts per 100 parts monomer; for Residual Rate of active substance, after 7 Days: preserved at 25° C. for 7 days
[3] = Solvency of DMAE in fatty acid ester or additive; conditions: 50 parts DMAE in 950 parts, 25° C.
Protocol: When a crystal of DMAE was precipitated […], and when a crystal of DMAE was not precipitated, the solvency was evaluated to be “poor”.

[4] = Solubility of DMAE at 25° C. (HPLC); conditions: g per 100 g of solvent
[5] = monomer: 2-Ethylhexyl Methacrylate

COc1ccc(OC)c(C(O)CN)c1 (stereo not shown) [DMAE, 2-amino-1-(2′,5′-dimethoxyphenyl)ethanol]
98 % by weight: Residual Rate of active substance, Immediately after Preparation ([2]; monomer: Butyl Methacrylate) | Residual Rate of active substance, after 7 Days ([2]; monomer: Butyl Methacrylate)
99 % by weight: Residual Rate of active substance, Immediately after Preparation [2, 5] | Residual Rate of active substance, after 7 Days [2, 5] | Residual Rate of active substance, Immediately after Preparation ([2]; monomer: Acrylic Acid) | Residual Rate of active substance, after 7 Days ([2]; monomer: Dodecyl Methacrylate)
11 % by weight: Residual Rate of active substance, after 7 Days ([2]; monomer: 2-Ethylhexyl Acrylate)
0.3 g: Solubility of DMAE ([4]; in Medium-chain Triglyceride)
2.5 g: Solubility of DMAE ([4]; in Oleyl Alcohol)
Excellent: Solvency of active substance ([1]; monomer: Acrylic Acid) | Solvency of active substance ([1]; monomer: Ethyl Acrylate) | Solvency of DMAE ([3]; solvent Diethyl Sebacate) | Solvency of DMAE ([3]; solvent Hexyl Laurate) | Solvency of DMAE ([3]; solvent Isopropyl Myristate) | Solvency of DMAE ([3]; solvent Isopropyl Palmitate) | Solvency of DMAE ([3]; solvent Liquid Paraffin) | Solvency of DMAE ([3]; solvent Medium-chain Triglyceride) | Solvency of DMAE ([3]; solvent Octyldodecyl Myristate) | Solvency of DMAE ([3]; solvent Oleic Acid) | Solvency of DMAE ([3]; solvent Oleyl Alcohol) | Solvency of DMAE ([3]; solvent Polyoxyethylene (2) Lauryl Ether) | Solvency of DMAE ([3]; solvent Squalane)
3.7 g: Solubility of DMAE ([4]; in Oleic Acid) | Solubility of DMAE ([4]; in Polyoxyethylene (2) Lauryl Ether)
Poor: Solvency of active substance ([1]; monomer: 1-Vinyl-2-Pyrrolidone) | Solvency of active substance ([1]; monomer: 2-Ethylhexyl Acrylate) | Solvency of active substance [1, 5] | Solvency of active substance ([1]; monomer: Butyl Methacrylate) | Solvency of active substance ([1]; monomer: Dodecyl Methacrylate) | Solvency of DMAE ([3]; solvent Butylene Glycol) | Solvency of DMAE ([3]; solvent Isostearic Acid) | Solvency of DMAE ([3]; solvent Monoethanolamine) | Solvency of DMAE ([3]; solvent Octanediol) | Solvency of DMAE ([3]; solvent Propylene Glycol) | Solvency of DMAE ([3]; solvent Triacetin)
0.9 g: Solubility of DMAE ([4]; in Diethyl Sebacate)
0.02 g: Solubility of DMAE ([4]; in Liquid Paraffin)
0.05 g: Solubility of DMAE ([4]; in Octyldodecyl Myristate)
27 % by weight: Residual Rate of active substance, Immediately after Preparation ([2]; monomer: Butyl Acrylate)
39 % by weight: Residual Rate of active substance, Immediately after Preparation ([2]; monomer: 2-Ethylhexyl Acrylate)
0.2 g: Solubility of DMAE ([4]; in Hexyl Laurate) | Solubility of DMAE ([4]; in Isopropyl Myristate) | Solubility of DMAE ([4]; in Isopropyl Palmitate)
100 % by weight: Residual Rate of active substance, Immediately after Preparation ([2]; monomer: 1-Vinyl-2-Pyrrolidone) | Residual Rate of active substance, after 7 Days ([2]; monomer: 1-Vinyl-2-Pyrrolidone) | Residual Rate of active substance, Immediately after Preparation ([2]; monomer: Dodecyl Methacrylate)
0.01 g: Solubility of DMAE ([4]; in Squalane)
Good: Solvency of active substance ([1]; monomer: Butyl Acrylate)
97 % by weight: Residual Rate of active substance, after 7 Days ([2]; monomer: Acrylic Acid)

COc1ccc2c(c1)c(CC(=O)O)c(C)n2C(=O)c1ccc(Cl)cc1 [IMT, indomethacin]
100 % by weight: Residual Rate of active substance, Immediately after Preparation ([2]; monomer: 1-Vinyl-2-Pyrrolidone) | Residual Rate of active substance, after 7 Days ([2]; monomer: 1-Vinyl-2-Pyrrolidone) | Residual Rate of active substance, Immediately after Preparation ([2]; monomer: 2-Ethylhexyl Acrylate) | Residual Rate of active substance, after 7 Days ([2]; monomer: 2-Ethylhexyl Acrylate) | Residual Rate of active substance, Immediately after Preparation [2, 5] | Residual Rate of active substance, after 7 Days [2, 5] | Residual Rate of active substance, Immediately after Preparation ([2]; monomer: Acrylic Acid) | Residual Rate of active substance, after 7 Days ([2]; monomer: Acrylic Acid) | Residual Rate of active substance, Immediately after Preparation ([2]; monomer: Butyl Acrylate) | Residual Rate of active substance, after 7 Days ([2]; monomer: Butyl Acrylate) | Residual Rate of active substance, Immediately after Preparation ([2]; monomer: Butyl Methacrylate) | Residual Rate of active substance, Immediately after Preparation ([2]; monomer: Dodecyl Methacrylate) | Residual Rate of active substance, after 7 Days ([2]; monomer: Dodecyl Methacrylate) | Residual Rate of active substance, Immediately after Preparation ([2]; monomer: Ethyl Acrylate)
Excellent: Solvency of active substance ([1]; monomer: 1-Vinyl-2-Pyrrolidone) | Solvency of active substance ([1]; monomer: Acrylic Acid)
Poor: Solvency of active substance ([1]; monomer: 2-Ethylhexyl Acrylate) | Solvency of active substance [1, 5] | Solvency of active substance ([1]; monomer: Butyl Acrylate) | Solvency of active substance ([1]; monomer: Butyl Methacrylate) | Solvency of active substance ([1]; monomer: Dodecyl Methacrylate) | Solvency of active substance ([1]; monomer: Ethyl Acrylate)
99 % by weight: Residual Rate of active substance, after 7 Days ([2]; monomer: Butyl Methacrylate) | Residual Rate of active substance, after 7 Days ([2]; monomer: Ethyl Acrylate)

O=[N+]([O-])O[C@H]1CO[C@H]2[C@@H]1OC[C@H]2O[N+](=O)[O-] [ISDN, isosorbide dinitrate]
99 % by weight: Residual Rate of active substance, after 7 Days [2, 5]
100 % by weight: Residual Rate of active substance, Immediately after Preparation ([2]; monomer: 1-Vinyl-2-Pyrrolidone) | Residual Rate of active substance, after 7 Days ([2]; monomer: 1-Vinyl-2-Pyrrolidone) | Residual Rate of active substance, Immediately after Preparation ([2]; monomer: 2-Ethylhexyl Acrylate) | Residual Rate of active substance, after 7 Days ([2]; monomer: 2-Ethylhexyl Acrylate) | Residual Rate of active substance, Immediately after Preparation [2, 5] | Residual Rate of active substance, Immediately after Preparation ([2]; monomer: Acrylic Acid) | Residual Rate of active substance, after 7 Days ([2]; monomer: Acrylic Acid) | Residual Rate of active substance, Immediately after Preparation ([2]; monomer: Butyl Acrylate) | Residual Rate of active substance, after 7 Days ([2]; monomer: Butyl Acrylate) | Residual Rate of active substance, Immediately after Preparation ([2]; monomer: Butyl Methacrylate) | Residual Rate of active substance, after 7 Days ([2]; monomer: Butyl Methacrylate) | Residual Rate of active substance, Immediately after Preparation ([2]; monomer: Dodecyl Methacrylate) | Residual Rate of active substance, after 7 Days ([2]; monomer: Dodecyl Methacrylate) | Residual Rate of active substance, Immediately after Preparation ([2]; monomer: Ethyl Acrylate) | Residual Rate of active substance, after 7 Days ([2]; monomer: Ethyl Acrylate)
Excellent: Solvency of active substance ([1]; monomer: 1-Vinyl-2-Pyrrolidone) | Solvency of active substance ([1]; monomer: 2-Ethylhexyl Acrylate) | Solvency of active substance [1, 5] | Solvency of active substance ([1]; monomer: Acrylic Acid) | Solvency of active substance ([1]; monomer: Butyl Acrylate) | Solvency of active substance ([1]; monomer: Butyl Methacrylate) | Solvency of active substance ([1]; monomer: Dodecyl Methacrylate) | Solvency of active substance ([1]; monomer: Ethyl Acrylate)

CC(C)(C)NCC(O)c1ccccc1Cl (stereo not shown) [TB, tulobuterol]
81 % by weight: Residual Rate of active substance, after 7 Days ([2]; monomer: Butyl Acrylate)
96 % by weight: Residual Rate of active substance, after 7 Days ([2]; monomer: Acrylic Acid)
Good: Solvency of active substance ([1]; monomer: Dodecyl Methacrylate)
88 % by weight: Residual Rate of active substance, after 7 Days ([2]; monomer: 2-Ethylhexyl Acrylate)
Excellent: Solvency of active substance ([1]; monomer: 1-Vinyl-2-Pyrrolidone) | Solvency of active substance ([1]; monomer: 2-Ethylhexyl Acrylate) | Solvency of active substance [1, 5] | Solvency of active substance ([1]; monomer: Acrylic Acid) | Solvency of active substance ([1]; monomer: Butyl Acrylate) | Solvency of active substance ([1]; monomer: Butyl Methacrylate) | Solvency of active substance ([1]; monomer: Ethyl Acrylate)
70 % by weight: Residual Rate of active substance, after 7 Days ([2]; monomer: Ethyl Acrylate)
100 % by weight: Residual Rate of active substance, Immediately after Preparation ([2]; monomer: 1-Vinyl-2-Pyrrolidone) | Residual Rate of active substance, after 7 Days ([2]; monomer: 1-Vinyl-2-Pyrrolidone) | Residual Rate of active substance, Immediately after Preparation ([2]; monomer: 2-Ethylhexyl Acrylate) | Residual Rate of active substance, Immediately after Preparation [2, 5] | Residual Rate of active substance, after 7 Days [2, 5] | Residual Rate of active substance, Immediately after Preparation ([2]; monomer: Acrylic Acid) | Residual Rate of active substance, Immediately after Preparation ([2]; monomer: Butyl Acrylate) | Residual Rate of active substance, Immediately after Preparation ([2]; monomer: Butyl Methacrylate) | Residual Rate of active substance, after 7 Days ([2]; monomer: Butyl Methacrylate) | Residual Rate of active substance, Immediately after Preparation ([2]; monomer: Dodecyl Methacrylate) | Residual Rate of active substance, after 7 Days ([2]; monomer: Dodecyl Methacrylate) | Residual Rate of active substance, Immediately after Preparation ([2]; monomer: Ethyl Acrylate)
